Seven compounds from patent US5208223A, “Phosphocholine derivative inhibitors of phospholipase A2” (American Cyanamid Company, priority 1992, dated 1993) can be followed below.

Assay type in all cases: biochemical
Test [1] concerns the target T1, porcine pancreatic PLA2 (Sus scrofa, UniProt P00592).
T1 construct: purchased Sigma
Nature of the test: PLA2 assay: in vitro porcine pancreatic phospholipase A2, preincubation of drug+enzyme, substrate 2 nM. As to conditions: preincubation, subs. con. 2; for inhibition at 25 µg/mL: dose 25 μ/ml; for IC50: read-out: IC50 (converted). An outline of the steps: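 Porcine pancreatic PLA2 acting on 2 nM radiolabeled arachidonyl-phosphatidylcholine in mixed micelles (0.1 M Tris-HCl pH 9.0, 10 mM CaCl2, 10 mM Na taurocholate), 15 min at 37 °C with preincubation of drug and enzyme. Stopped with TCA; released 3H-arachidonate extracted, separated by TLC or column, counted by scintillation.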

The target of test [2] is T1, porcine pancreatic PLA2. Nature of the test: HPLA2 assay: in vitro porcine pancreatic phospholipase A2, preincubation design, [s]=10 μm. The protocol: Phospholipase A2 activity was measured by a radiochemical assay in which labeled synthetic phosphatidylcholine substrate is converted by porcine pancreatic PLA2 to free radiolabeled arachidonate and lyso PC. Radiolabeled arachidonate is extracted from the reaction mixture and separated from unreacted substrate by column chromatography or TLC. Radioactivity (cpm) in samples is quantitated by liquid scintillation counting. Specific details are as follows:
Labeled substrate(1-stearyl-2-^3 H-arachidonylphosphatidylcholine; Amersham, sp. act. 84 (uCi/mmole, 0.025 to 0.2 uCi/assay tube and unlabeled substrates (Avanti), in sufficient quantity to give 20,000 cpm to 50,000 cpm and 10 μM to 1,000 μM final concentration/assay tube are dried under a stream of nitrogen. The PLA2 and mPLA2 assays utilized a […] substrate concentration. The mHPLA2 and HPLA2 assays (vida infra) utilized a 10 μM substrate concentration and the SmPLA2 assay utilized a substrate concentration ranging from 100 to 1000 μm. The substrate is then redissolved in 0.1M tris-HCl buffer, pH 9.0 containing 10 mM CaCl2 and 10 mM Na taurocholate detergent. The mixture is sonicated in a Kontes Sonifier to yield a homogeneous dispersion. The "mixed" micellar substrate is clear. An aliquot is reserved for a cpm count (total substrate). The total reaction volume is 500 μL; siliconized glassware or plasticware is used throughout. Enzyme (Sigma, sp. act.>690 U/mg protein and preferably 900 U/mg protein) is diluted 1:750 or 1:1000 in 0.1M tris-HCl buffer, pH 9.0 (without Ca^++ and detergent). Enzyme dilution depends on substrate concentration and required enzyme concentration.
The substrate in buffer is kept on ice until the reaction is started. The reaction is started by adding 10 μL of diluted enzyme solution to 490 μL of micellar substrate solution. Samples are incubated in a 37° C. water bath for 15 minutes with gentle mixing. The reaction is terminated by the addition of 100 μL of 1M fresh trichloroacetic acid (TCA) solution and chilling the tubes on ice for 30 minutes.
Samples (600 μL) are extracted with 3 ml CHCl3 /MeOH (2:1) for thin layer chromatography or in hexane/ether (9:1) for column chromatography. The phases are separated by gentle centrifugation at 700 rpm×5'. The organic phase is recovered.
Labeled arachidonate extracted with CHCl3 /MeOH is separated on silica gel G TLC plates (Analtech). Twenty μL of a 2 mg/ml internal standard solution of arachidonic acid (Sigma) is combined with 2-3 ml of the organic phase. The entire mixture is dried under nitrogen and redissolved in 50 μL of CHCl3 /MeOH (2:1). A 20 μL sample is counted in 10 ml of Beckman Redi-solv HP and spotted on silica gel G plates. […] Plates are developed in a glass chamber for 1-11/2 hours, air dried, and the spots visualized in an iodine vapor chamber. Standards of phosphatidylcholine, lyso PC, and arachidonic acid (Sigma) are made as 2 mg/ml stocks in CHCl3 /MeOH (2:1) and spotted on plates. Spots corresponding to arachidonate and phospholipid are scraped and counted in 10 ml Beckman Redi-Solv HP scintillation fluid.
Samples are extracted with hexane/ether and the upper organic phase recovered. An aliquot is applied to a Silicar CC4 (Malincrodt) column. Columns are prepared using 1 ml of a 1:1 slurry of silicar CC4 in hexane/ether in a Pasteur pipet (approx. 2 cm height). Columns are rinsed with 500 μL of hexane/ether before adding the sample (300-600 μL) to the column. Columns are eluted with a total of 6 ml of hexane/ether. The 6 ml sample is counted in 10 ml of Beckman Redi-Solv HP scintillation fluid.
or the phospholipase A2 assay, compounds are prepared as 1 mg/ml stock solutions in MeOH and diluted appropriately in PBS.

In test [3] the target is T1, porcine pancreatic PLA2. Put plainly: MHPLA2 assay: in vitro porcine pancreatic phospholipase A2, mixed micelle design, [s]=10 μm. An outline of the steps:
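Compounds dried with 10 μM 1-stearyl-2-[3H]-arachidonyl-PC substrate in mixed micelles (0.1M tris-HCl pH 9.0, 10 mM CaCl2, 10 mM Na taurocholate). Reaction started by adding enzyme and run 15 min at 37°C, then stopped with TCA. Released [3H]-arachidonate separated by TLC or column and counted by scintillation.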

The target of test [4] is T1, porcine pancreatic PLA2. Put plainly: MPLA2 assay: in vitro porcine pancreatic phospholipase A2, mixed micelle design, substrate 2 nM. The conditions noted are these: for inhibition at 25 µg/mL: dose 25 μ/ml. The method in brief:
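Radiochemical PLA2 assay, mixed-micelle design: compound dried under N2 with 1-stearyl-2-[3H]-arachidonyl-PC substrate (2 nM) in 0.1M Tris-HCl pH 9.0, 10 mM CaCl2, 10 mM Na taurocholate. Reaction started with enzyme, 15 min at 37° C, stopped with TCA; released [3H]-arachidonate extracted, separated by TLC or column, counted by scintillation.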

Setting [5] is: dose 10 μ/ml, read-out: % Inh. Avg.
[6] abbreviates: dose 10 μ/ml, subs. con. 10, read-out: % Inh. Avg.
Where [7] appears, read: dose 20 μ/ml, subs. con. 10, read-out: % Inh. Avg.
Setting [8] is: dose 50 μ/ml, subs. con. 10, read-out: % Inh. Avg.
Setting [9] is: dose 25 μ/ml, subs. con. 10, read-out: % Inh.
Setting [10] is: dose 20 μ/ml, subs. con. 10, read-out: % Inh.
[11] abbreviates: dose 50 μ/ml, subs. con. 10, read-out: % Inh.
[12] abbreviates: dose 10 μ/ml, subs. con. 10, read-out: % Inh.

pIC50: −log10 of the molar value. Counter-ions that a name gives are not always drawn. Like-named read-outs stand apart in the source and are kept apart here.

T1 sequence (P00592 23-146): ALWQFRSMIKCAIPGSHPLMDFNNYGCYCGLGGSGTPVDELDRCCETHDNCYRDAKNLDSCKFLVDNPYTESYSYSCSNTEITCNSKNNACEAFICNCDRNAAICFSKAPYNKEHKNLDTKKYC

The term IC50 denotes the concentration at which inhibition is half-maximal. With `CCCCCCCCCCCCCCCCOCC(COP(=O)([O-])OCC[N+](C)(C)C)OP(=O)(O)OCCCCCCCCCCCCCCCC` (single isomer, unassigned; more polar) [3,5,8,10-Tetraoxa-4,9-diphosphahexacosan-1-aminium, 7-[(hexadecyloxy)methyl]-4,9-dihydroxy-N,N,N-trimethylhydroxide, 4-(inner salt), 4,9-dioxide, more polar isomer], the inhibition at 10 µg/mL was 27% on porcine pancreatic PLA2 [1] (setting [5]) and 18% on porcine pancreatic PLA2 [2] (setting [6]). In addition, the inhibition at 25 µg/mL at porcine pancreatic PLA2 [1] (read-out: % Inh.) is 91%; at porcine pancreatic PLA2 [3] (setting [9]), 1%. Also, at porcine pancreatic PLA2 [1], the IC50 is 3180 nM. Further, at porcine pancreatic PLA2 [2] (setting [7]), the inhibition at 20 µg/mL turned out to be 22%. In addition, the inhibition at 50 µg/mL at porcine pancreatic PLA2 [2] (setting [8]) was found to be 32%.
With `CCCCCCCCCCCCCCCCOC[C@@H](COP(=O)([O-])OCC[N+](C)(C)C)OP(=O)(OC)OCCCCCCCCCCCCCCCC` (single isomer, unassigned) [3,5,8,10-Tetraoxa-4,9-diphosphahexacosan-1-aminium, 7-[(hexa], the “% Inh. Avg.” value was 25% on porcine pancreatic PLA2 [1] (dose 10 μ/ml); 39% on porcine pancreatic PLA2 [1] (dose 20 μ/ml); 18% at porcine pancreatic PLA2 [2] (dose 10 μ/ml, subs. con. 10); 12% at porcine pancreatic PLA2 [2] (dose 20 μ/ml, subs. con. 10); 25% on porcine pancreatic PLA2 [2] (dose 50 μ/ml, subs. con. 10). On porcine pancreatic PLA2 [3] (dose 25 μ/ml, subs. con. 10), the “% Inh.” value is listed as 9%.
In the case of `CCCCCCCCCCCCCCCCOC[C@H](COP(=O)([O-])OCC[N+](C)(C)C)OP(=O)(OC)OCCCCCCCCCCCCCCCC` (single isomer, unassigned), the inhibition at 25 µg/mL is 93% on porcine pancreatic PLA2 [1] (read-out: % Inh.); 93% at porcine pancreatic PLA2 [4] (subs. con. 2, read-out: % Inh.); 7% on porcine pancreatic PLA2 [3] (setting [9]). Besides, the IC50 on porcine pancreatic PLA2 [1] is 2500 nM. The inhibition at 10 µg/mL on porcine pancreatic PLA2 [2] (setting [6]) was found to be 17%. Further, the inhibition at 20 µg/mL on porcine pancreatic PLA2 [2] (setting [7]) came to 21%. The inhibition at 50 µg/mL at porcine pancreatic PLA2 [2] (setting [8]) came out at 30%.
In the case of `CCCCCCCCCCCCCCCCOCC(COP(=O)([O-])OCC[N+](C)(C)C)OP(=O)(O)OCCCCCCCCCCCCCCCC` (stereo not drawn) [3,5,8,10-Tetraoxa-4,9-diphosphahexacosan-1-aminium, 7-[(hexa] [3,5,8,10-Tetraoxa-4,9-diphosphahexacosan-1-aminium, 7-[(hexadecyloxy)methyl]-4,9-dihydroxy-N,N,N-trimethyl-hydroxide, 4-(inner salt), 4,9-dioxide], the “% Inh.” value on porcine pancreatic PLA2 [2] (dose 10 μ/ml, subs. con. 10) was “STIM”.
On to `CCCCCCCCCCCCCCCCOC[C@@H](COP(=O)([O-])OCC[N+](C)(C)C)OP(=O)(OC)OCCCCCCCCCCCCCCCC` (single isomer, unassigned), for which the inhibition at 10 µg/mL at porcine pancreatic PLA2 [1] (setting [5]) came to 29%; at porcine pancreatic PLA2 [2] (setting [6]) it was 22%. The inhibition at 20 µg/mL turned out to be 26% on porcine pancreatic PLA2 [1] (dose 20 μ/ml, read-out: % Inh. Avg.) and 18% on porcine pancreatic PLA2 [2] (setting [7]). For the same compound, the inhibition at 50 µg/mL on porcine pancreatic PLA2 [2] (setting [8]) was determined as 23%.
Turning to `CCCCCCCCCCCCCCCCOCC(COP(=O)([O-])OCC[N+](C)(C)C)OP(=O)(O)OCCCCCCCCCCCCCCCC` (stereo not drawn) [3,5,8,10-Tetraoxa-4,9-diphosphahexacosan-1-aminium, 7-[(hexadecyloxy)methyl]-4,9-dihydroxy-N,N,N-trimethyl-, hydroxide, 4-inner salt), 4,9-dioxide], the inhibition at 20 µg/mL at porcine pancreatic PLA2 [2] (setting [10]) was determined as 0%. The inhibition at 50 µg/mL on porcine pancreatic PLA2 [2] (setting [11]) came to 0%.
In general, pIC50 refers to −log10 of the IC50, conventionally taken in molar units. Higher therefore signals a small IC50. For the compound `CCCCCCCCCCCCCCCCOCC(COP(=O)([O-])OCC[N+](C)(C)C)C[S+]([O-])CCCCCCCCCCCCCCCC` (stereo not drawn) [7-[(Hexadecylsulfinyl)methyl]-4-hydroxy-N,N,N-trimethyl-3,5,9-trioxa-4-phosphapentacosan-1-aminium, hydroxide, inner salt, 4-oxide], on porcine pancreatic PLA2 [1] (dose 10 μ/ml), the “% Inh.” value amounted to 88%. For the same compound, the inhibition at 10 µg/mL came to 66% at porcine pancreatic PLA2 [1] (setting [5]); 27% on porcine pancreatic PLA2 [2] (setting [12]); 22% at porcine pancreatic PLA2 [2] (setting [6]); 71% at porcine pancreatic PLA2 [4] (dose 10 μ/ml, subs. con. 2, read-out: % Inh.); 3% on porcine pancreatic PLA2 [3] (setting [12]). The inhibition at 20 µg/mL on porcine pancreatic PLA2 [1] (dose 20 μ/ml, read-out: % Inh.) worked out at 93%; at porcine pancreatic PLA2 [2] (setting [10]), 33%; on porcine pancreatic PLA2 [2] (setting [7]), 33%; on porcine pancreatic PLA2 [4] (dose 20 μ/ml, subs. con. 2, read-out: % Inh.), 84%; against porcine pancreatic PLA2 [3] (dose 20 μ/ml, subs. con. 10), 22%. In addition, the IC50 on porcine pancreatic PLA2 [1] is 1860 nM. The values for the inhibition at 50 µg/mL on porcine pancreatic PLA2 [2] (setting [11]) and at porcine pancreatic PLA2 [2] (setting [8]) were 36% and 42%, respectively. Also, the inhibition at 25 µg/mL was 98% on porcine pancreatic PLA2 [4] (subs. con. 2, read-out: % Inh.) and 68% at porcine pancreatic PLA2 [3] (setting [9]). At porcine pancreatic PLA2 [4] (subs. con. 2), the pIC50 was 5.41.
